Experimental data published in PubChem BioAssay AID1895 (NMMLSC, 2009).
The source made the active and inactive calls. The rule behind the calls is not given here.

Biological target: MEK5 PB1 domain binding to MEKK2 (MAP3K2) mutant PB1, human
Assay: mutant MEKK2 PB1-MEK5 interaction blockers – biochemical, bead multiplex flow cytometry, dose response (AID 1895)
Details: Bead-based multiplex flow cytometry; for Ki: measured here: Ki for PB1 binding

EC50	Ki [µM]	Structure (SMILES)
inactive	2.61	CCCN1C(=O)/C(=C\C=C2/Sc3ccccc3N2CC)SC1=S
10.3 µM	–	CCOC(=O)c1c(CSC(=N)N)n(-c2ccc(C)cc2)c2cc(Br)c(OC(C)=O)cc12
> 30 µM (inactive)	–	Cc1cc2ccccc2n1CCNC(=O)c1ccccc1
> 30 µM (inactive)	–	CN1CCN(c2ccc(NC(=O)c3ccc(-c4ccc(Cl)cc4)o3)cc2)CC1
> 30 µM (inactive)	–	O=C(Nc1ccc(C2=NCCN2)cc1)c1ccc(C(=O)Nc2ccc(C3=NCCN3)cc2)c([N+](=O)[O-])c1
8.3 µM	–	CCc1ccc(Nc2n[n+](-c3ccccc3)c(-c3cc(OC)c(OC)cc3Br)s2)cc1
> 30 µM (inactive)	–	COCc1c(C#N)c(NCCc2ccccc2)nc(C)c1[N+](=O)[O-]
> 30 µM (inactive)	–	COc1ccc(Cn2cc3c(-c4ccc(F)cc4)nnc-3c3cc(OC)c(OC)cc32)cc1
5.37 µM	–	COc1ccc2nc3cc(Cl)ccc3c(Nc3cc(C(C)C)c(O)cc3C)c2c1
> 30 µM (inactive)	–	Cc1cc(N=Nc2ccc(C)c(N=Nc3cc(C)c(N)cc3N)c2)c(N)cc1N
22.8 µM	–	CCCCN(CC)CCNC(=O)c1cc2c(-c3ccc(Cl)cc3)nn(C)c2s1
> 30 µM (inactive)	–	O=C1c2ccccc2-c2onc3ccc(NCCCn4ccnc4)c1c23
> 30 µM (inactive)	–	CCCCCCCCCCOC(=O)Cn1c(COc2ccc(OC)cc2)[n+](C)c2ccccc21
> 30 µM (inactive)	–	CC(=O)Nc1cccc2c1C(=O)N(c1cccc(C)c1)C2=O
> 30 µM (inactive)	–	CN1CCN(CC(O)COc2ccc(C34CC5CC(CC(C5)C3)C4)cc2)CC1 (configuration not stated)
inactive	–	CC(C)N=c1cc2n(-c3ccc(Cl)cc3)c3ccccc3nc-2cc1Nc1ccc(Cl)cc1
3.62 µM	–	C#CCOCCOCCOCCNc1nc(N2CCN(C(=O)[C@H](Cc3cc4ccccc4[nH]3)n3cc([C@@H](N)C(C)CC)nn3)CC2)nc(N2CCN(C(=O)[C@H](Cc3cc4ccccc4[nH]3)n3cc([C@@H](N)CC(C)C)nn3)CC2)n1 (some centres not stated)
13.8 µM	–	COC(=O)C1=C(C)N(Cc2ccccc2)C(=NCc2cccc(C(F)(F)F)c2)N[C@H]1c1cccc(F)c1
7.18 µM	–	CCN(Cc1ccccc1)S(=O)(=O)c1ccc(C(=O)N(CCCN(C)C)c2nc3ccc(F)cc3s2)cc1
> 30 µM (inactive)	–	C#CCOCCOCCOCCNc1nc(N2CCN(C(=O)[C@H](Cc3ccc(O)cc3)n3cc([C@@H](N)CC(C)C)nn3)CC2)nc(N2CCN(C(=O)[C@H](Cc3cc4ccccc4[nH]3)n3cc([C@@H](N)CC(C)C)nn3)CC2)n1
> 30 µM (inactive)	–	C/C(=N\NC(=O)c1cc(O)cc(O)c1)c1ccc(NC(=O)Cc2ccccc2)cc1
0.51 µM	0.5	CCC(/C=C1\Sc2ccc(OC)cc2N1CCO)=C\c1sc2ccc(OC)cc2[n+]1CCO
> 30 µM (inactive)	–	C#CCOCCOCCOCCNc1nc(N2CCN(C(=O)[C@H]([C@@H](C)CC)n3cc([C@@H](N)CC(C)C)nn3)CC2)nc(N2CCN(C(=O)[C@H](Cc3cc4ccccc4[nH]3)n3cc([C@@H](N)Cc4ccc(O)cc4)nn3)CC2)n1
8.32 µM	–	COc1ccc(/C=N/Nc2cc(C)nc3ccc(Br)cc23)cc1

EC50	Ki [µM]	Structure (SMILES)
> 30 µM (inactive)	–	COc1cc(/C=N/NC(=O)c2cc3ccccc3cc2O)ccc1OCCN1CCCCC1
> 30 µM (inactive)	–	COc1ccccc1N(CN1C(=O)c2ccccc2C1=O)C(=O)c1cccc(C)c1
14.4 µM	–	CCCCCCOc1ccc(/C(C)=N/NC2=NCCN2)cc1[N+](=O)[O-]
> 30 µM (inactive)	–	O=C(Nc1ccc(Cl)cn1)c1ccc2c(Cl)c3c(nc2c1)CCC3
7.06 µM	–	FC(F)(F)c1cccc(NC(=S)N(CCCN2CCCC2)Cc2cccn2Cc2ccc(Cl)cc2)c1
> 30 µM (inactive)	–	CCOC(=O)c1c(C)n(-c2ccc(C)cc2)c2ccc(OCC(O)CN3CCN(C)CC3)cc12 (configuration not stated)
inactive	0.14	CCC(=C/c1sc2ccc3ccccc3c2[n+]1C)/C=C1\Sc2ccc3ccccc3c2N1C
> 30 µM (inactive)	–	COc1ccc2nc(C)cc(N/N=C/c3cccc(OC)c3O)c2c1
> 30 µM (inactive)	–	CC[n+]1c(/C=C/C=C/N(C(C)=O)c2ccccc2)sc2ccccc21
6 µM	–	CCCCCCCCCCOC(=O)Cn1c(COc2ccccc2)[n+](C)c2ccccc21
> 30 µM (inactive)	–	CN(C)CCCn1c(SCC(=O)Nc2nc(-c3cccc(Br)c3)cs2)nc2ccccc2c1=O
4.43 µM	4.34	CCNc1ccc2noc3c2c1C(=O)c1ccccc1-3
2.38 µM	–	CCOC(=O)C1=C(c2ccccc2)NC(N)=NC1c1ccc(OCc2ccc(C(=O)OC)cc2)cc1 (configuration not stated)
> 30 µM (inactive)	–	CCCCCc1cc(=O)oc2c(C(CCN3CCCCC3)c3ccc4c(c3)OCO4)c(OC)cc(OC)c12 (configuration not stated)
> 30 µM (inactive)	–	NC(=O)CSc1nnc(Cc2ccc3c(c2)OCO3)o1
> 30 µM (inactive)	–	COc1ccc(Cn2c(SCc3ccccc3C)nc3cc(OC)c(OC)cc3c2=N)cc1
> 30 µM (inactive)	–	Cc1ccnc(NC(=O)C2(c3cccs3)CCOCC2)c1
12.1 µM	–	CCOc1cccc2sc(N(CCCN(C)C)C(=O)c3ccc(S(=O)(=O)N4CCc5ccccc5C4)cc3)nc12
5.31 µM	–	COc1cc2nc(N3CCN(c4cc(C)ccc4C)CC3)nc(N)c2cc1OC
14.7 µM	–	C#CCOCCOCCOCCNc1nc(N2CCN(C(=O)[C@H]([C@@H](C)CC)n3cc([C@@H](N)Cc4ccc(O)cc4)nn3)CC2)nc(N2CCN(C(=O)[C@H](CCCCN)n3cc([C@@H](N)CC(C)C)nn3)CC2)n1
5.01 µM	–	CCN(CC)CCNC(=O)c1ccc(NC(=O)c2cn(-c3ccccc3)nc2-c2cccs2)cc1
> 30 µM (inactive)	–	CCCCCc1cc(=O)oc2c(C(CCN3CCCC(C)C3)c3ccc4c(c3)OCO4)c(OC)cc(OC)c12 (configuration not stated)
> 30 µM (inactive)	–	COC(=O)c1c(C)oc(C)c1S(=O)(=O)N(Cc1ccccc1)C(C)C
> 30 µM (inactive)	–	N#CC(C#N)=c1ccc2c(c1)N1C(c3ccccc3)=CC(c3ccccc3)C3CCCCC31N=2 (configuration not stated)

EC50	Ki [µM]	Structure (SMILES)
5.27 µM	–	CCc1ccc(-c2nn(-c3ccccc3)cc2CSC(=N)N)cc1
> 30 µM (inactive)	–	CNc1nc(-c2c[nH]c3ccccc23)cs1
1.09 µM	–	CCOC(=O)c1c(-c2ccc(-c3ccccc3)cc2)csc1NC(=O)CNCCN(C)C
8.61 µM	–	CCCCCCCCCCCCCCCC[n+]1ccc(/C=N/O)cc1
> 30 µM (inactive)	–	CCc1ccc(Nc2n[n+](-c3ccccc3)c(-c3ccc(OCc4ccccc4)cc3)s2)cc1
10.3 µM	–	C#CCOCCOCCOCCNc1nc(N2CCN(C(=O)[C@H](Cc3cc4ccccc4[nH]3)n3cc([C@@H](N)C(C)CC)nn3)CC2)nc(N2CCN(C(=O)[C@H](CCCCN)n3cc([C@@H](N)CC(C)C)nn3)CC2)n1 (some centres not stated)
> 30 µM (inactive)	–	COc1ccccc1N1CCN(S(=O)(=O)c2ccc(Cl)s2)CC1
4.9 µM	4.8	CCN(CC)CCOC(=O)c1ccc(N/C=C(/C#N)c2nc(-c3cc4ccccc4oc3=O)cs2)cc1
> 30 µM (inactive)	–	COc1ccc(-c2cc(C#N)nc(N3CCNCC3)n2)cc1
> 30 µM (inactive)	–	CC(C)n1cc(CN2CCC(C(=O)Nc3cccc(-c4cccc(Cl)c4)c3)CC2)cn1
6.89 µM	–	CCCCCCCCCCCCCCCC[n+]1cccc2ccccc21
> 30 µM (inactive)	–	C=CC#CC[N+]1(CC#Cc2ccccc2)CCOCC1
9.64 µM	–	CCOC(=O)C1=C(c2ccccc2)NC(N)=NC1c1ccc(OCc2ccc(Cl)cc2)c(OC)c1 (configuration not stated)
inactive	3.16	CCN1C(c2ccccc2)=C(c2ccccc2)S/C1=C/C=C1\SC(=S)N(C)C1=O
> 30 µM (inactive)	–	CC[C@@H](C)[C@H](CNC)NC[C@@H](Cc1cccc2ccccc12)NCCc1cccc(C(F)(F)F)c1
> 30 µM (inactive)	–	CC(=O)Nc1ccc(OCC(O)Cn2c3ccccc3c3ccccc32)cc1 (configuration not stated)
> 30 µM (inactive)	–	COc1ccc2[nH]c3c(C)c4ccncc4c(C)c3c2c1
> 30 µM (inactive)	–	COc1cccc(OC)c1-c1nn2c(-c3cc(-c4ccccc4)n[nH]3)nnc2s1
> 30 µM (inactive)	–	OCCCCNCc1ccc(OCc2ccc(Cl)cc2Cl)cc1
> 30 µM (inactive)	–	COc1ccc(-n2nc3c(N)n[nH]c3cc2=O)cc1
inactive	0.16	CN(c1ccccc1)c1ccc(/C=c2\s/c(=C(/C#N)C(=O)C(C)(C)C)n(Cc3ccco3)c2=O)cc1
> 30 µM (inactive)	–	CN(C)CCCN(C(=O)c1ccc2c(c1)CCCC2)c1nc2ccc(Cl)cc2s1
